Reference: ChEMBL document CHEMBL5584353, “Design, Synthesis, and Biological Evaluation of Potent EZH2/LSD1 Dual Inhibitors for Prostate Cancer” (J Med Chem, 2024)
Active and inactive are the calls of the source. The rule behind the calls is not given here.

What was measured:
[1] = AUC (0 to infinity) in BALB/c mouse at 50 mg/kg,iv measured upto 24 hrs by HPLC-MS/MS analysis; assay type: ADME, organism-based; conditions: in vivo
[2] = Metabolic stability in Sprague-Dawley rat hepatocyte assessed as compound remaining at 20 uM incubated for 30 mins by HPLC-MS/MS analysis; assay type: ADME, cell-based; conditions: hepatocytes, read-out: Stability
[3] = Toxicity in BALB/c mouse xenografted with human 22Rv1 cells assessed as change in body weight at 80 mg/kg,ip administrated daily for 31 days; assay type: organism-based, CWR22R; conditions: in vivo, 744 h, time 31 day
[4] = biological target: T1, Lysine-specific histone demethylase 1A (Homo sapiens, UniProt O60341); experiment: Inhibition of LSD1 in human 22Rv1 cells assessed as downregulation of AR expression incubated for 48 hrs by Western blotting analysis; assay type: cell-based
[5] = AUC (0 to infinity) in BALB/c mouse at 50 mg/kg,po measured upto 24 hrs by HPLC-MS/MS analysis; assay type: ADME, organism-based; conditions: in vivo
[6] = Clearance in BALB/c mouse at 50 mg/kg,po measured upto 24 hrs by HPLC-MS/MS analysis; assay type: ADME, organism-based; conditions: in vivo
BT-549 = experiment: Antiproliferative activity against human BT-549 cells assessed as inhibition of cell growth incubated for 6 to 7 days by MTS assay; assay type: functional, cell-based; conditions: time 6-7 day
CWR22R [7] = experiment: Growth inhibition of human 22Rv1 cells incubated for 6 to 7 days by MTS assay; assay type: functional; conditions: time 6-7 day
[8] = Toxicity in BALB/c mouse xenografted with human 22Rv1 cells assessed as heart morphological change at 80 mg/kg,ip administrated daily for 31 days; assay type: organism-based, CWR22R; conditions: in vivo, 744 h, time 31 day
[9] = AUC (0 to infinity) in BALB/c mouse at 50 mg/kg,ip measured upto 24 hrs by HPLC-MS/MS analysis; assay type: ADME, organism-based; conditions: in vivo
[10] = Tmax in BALB/c mouse at 50 mg/kg,po measured upto 24 hrs by HPLC-MS/MS analysis; assay type: ADME, organism-based; conditions: in vivo
LNCaP C4-2B = experiment: Antiproliferative activity against human LNCaP C4-2B cells assessed as inhibition of cell growth incubated for 6 to 7 days by MTS assay; assay type: functional, cell-based; conditions: time 6-7 day
CWR22R [11] = experiment: Synergistic antitumor activity against human 22Rv1 cells xenografted in BALB/c mouse assessed as reduction in tumor growth at 80 mg/kg,ip administrated daily for 31 days in presence of enzalutamide relative to control; assay type: functional, organism-based; conditions: time 31.0 day
MOLM-13 = experiment: Antiproliferative activity against human MOLM-13 cells assessed as inhibition of cell growth incubated for 6 to 7 days by MTS assay; assay type: functional, cell-based; conditions: time 6-7 day
LNCaP [12] = experiment: Growth inhibition of human LNCaP cells incubated for 6 to 7 days by MTS assay; assay type: functional; conditions: time 6-7 day
[13] = Clearance in BALB/c mouse at 50 mg/kg,iv measured upto 24 hrs by HPLC-MS/MS analysis; assay type: ADME, organism-based; conditions: in vivo
[14] = Metabolic stability in Sprague-Dawley rat hepatocyte assessed as compound remaining at 20 uM incubated for 180 mins by HPLC-MS/MS analysis; assay type: ADME, cell-based; conditions: hepatocytes, read-out: Stability
[15] = Half life in BALB/c mouse at 50 mg/kg,ip measured upto 24 hrs by HPLC-MS/MS analysis; assay type: ADME, organism-based; conditions: in vivo
A549 = experiment: Antiproliferative activity against human A549 cells assessed as inhibition of cell growth incubated for 6 to 7 days by MTS assay; assay type: functional, cell-based; conditions: time 6-7 day
CWR22R [16] = experiment: Induction of apoptosis in human 22Rv1 cells at 10 uM incubated for 5 days by Annexin V-FITC/PI staining based flow cytometric analysis (reference value: 8.97 %); assay type: functional; conditions: time 5 day
CWR22R [17] = experiment: Antimigratory activity in human 22Rv1 cells assessed as downregulation of N-cadherin expression at 3 to 10 uM incubated for 48 hrs by Western blotting analysis; assay type: functional, cell-based; conditions: dose 3-10 µM
PC-3 [18] = experiment: Antimigratory activity in human PC-3 cells assessed as upregulation of E-cadherin expression at 3 to 10 uM incubated for 48 hrs by Western blotting analysis; assay type: functional, cell-based; conditions: dose 3-10 µM
[19] = Oral bioavailability in BALB/c mouse at 50 mg/kg measured upto 24 hrs by HPLC-MS/MS analysis; assay type: ADME, organism-based; conditions: in vivo
[20] = Metabolic stability in Sprague-Dawley rat hepatocyte assessed as half life at 20 uM incubated for 60 mins by HPLC-MS/MS analysis; assay type: ADME, cell-based; conditions: hepatocytes
[21] = biological target: T1, Lysine-specific histone demethylase 1A; experiment: Inhibition of LSD1 in human LNCaP cells assessed as downregulation of AR expression incubated for 48 hrs by Western blotting analysis; assay type: cell-based
[22] = Toxicity in BALB/c mouse xenografted with human 22Rv1 cells assessed as kidney morphological change at 80 mg/kg,ip administrated daily for 31 days; assay type: organism-based, CWR22R; conditions: in vivo, 744 h, time 31 day
PC-3 [23] = experiment: Antimigratory activity in human PC-3 cells assessed as downregulation of E-cadherin expression at 3 to 10 uM incubated for 48 hrs by Western blotting analysis; assay type: functional, cell-based; conditions: dose 3-10 µM
LNCaP [24] = experiment: Induction of cell cycle arrest in human LNCaP cells assessed as accumulation of cells at G0/G1 phase incubated for 72 hrs by propidium iodide/RNase staining based flow cytometric analysis; assay type: functional
CWR22R [25] = experiment: Induction of apoptosis in human 22Rv1 cells at 1 uM incubated for 5 days by Annexin V-FITC/PI staining based flow cytometric analysis (reference value: 8.97 %); assay type: functional; conditions: time 5 day
BEAS-2B = experiment: Cytotoxicity against human BEAS-2B cells incubated for 6 to 7 days by MTS assay; assay type: toxicity, cell-based; conditions: time 6-7 day
LNCaP [26] = experiment: Synergistic antiproliferative activity against human LNCaP cells assessed as inhibition of cell growth at 6.25 to 100 uM incubated for 6 to 7 days in presence of enzalutamide by MTS assay; assay type: functional, cell-based; conditions: dose 6.25-100 µM, time 6-7 day
MV4-11 = experiment: Antiproliferative activity against human MV4-11 cells assessed as inhibition of cell growth incubated for 6 to 7 days by MTS assay; assay type: functional, cell-based; conditions: time 6-7 day
CWR22R [27] = experiment: Antitumor activity against human 22Rv1 cells xenografted in BALB/c mouse assessed as reduction in Ki67 expression at 80 mg/kg,ip administrated daily for 31 days by immunofluorescence analysis; assay type: functional, organism-based; conditions: time 31.0 day
[28] = biological target: T1, Lysine-specific histone demethylase 1A; experiment: Inhibition of LSD1 in human LNCaP cells assessed as upregulation of H3K4me2 expression at 1 to 5 uM incubated for 5 days by Western blotting analysis; assay type: cell-based; conditions: dose 1-5 µM, time 5.0 day
PC-9 = experiment: Antiproliferative activity against human PC-9 cells assessed as inhibition of cell growth incubated for 6 to 7 days by MTS assay; assay type: functional, cell-based; conditions: time 6-7 day
CWR22R [29] = conditions: Homo sapiens, dose 80.0 mg/kg, route ip, time 31.0 day
CWR22R [30] = experiment: Induction of apoptosis in human 22Rv1 cells assessed as upregulation of cleaved caspase-3 expression incubated for 48 hr by Western blotting analysis; assay type: functional, cell-based
[31] = biological target: T1, Lysine-specific histone demethylase 1A; experiment: Inhibition of LSD1 in human 22Rv1 cells assessed as upregulation of H3K4me2 expression at 1 to 5 uM incubated for 5 days by Western blotting analysis; assay type: cell-based; conditions: dose 1-5 µM, time 5.0 day
PC-3 [32] = experiment: Induction of cell cycle arrest in human PC-3 cells assessed as accumulation of cells at G0/G1 phase incubated for 72 hrs by propidium iodide/RNase staining based flow cytometric analysis; assay type: functional

CCN(c1cc(-c2ccc([C@@H]3C[C@H]3N(CC3CCOCC3)C(=O)OC(C)(C)C)cc2)cc(C(=O)NCc2c(C)cc(C)[nH]c2=O)c1C)C1CCOCC1 (racemic)
AUC(0-inf) [1]: 126 µg·h/mL
remaining at 0.5 h, 20 µM [2]: 93%
Activity [3]: Non-Toxic
inhibition [4]: Dose-Dependent Effect
AUC(0-inf) [5]: 41400 ng·h/mL
CL/F [6]: 20 mL/min/kg
Activity (BT-549): Active
GI50 (CWR22R [7]): 3.96 µM
Activity [8]: Non-Toxic
AUC(0-inf) [9]: 112 µg·h/mL
Tmax [10]: 1 h
Activity (LNCaP C4-2B): Active
Activity (CWR22R [11]): Active
Activity (MOLM-13): Active
GI50 (LNCaP [12]): 1630 nM
clearance [13]: 6.67 mL/min/kg
remaining at 3 h, 20 µM [14]: 70%
half-life [15]: 210 min
Activity (A549): Active
Activity (CWR22R [16]): 50.06%
Activity (CWR22R [17]): Active
Activity (PC-3 [18]): Active
bioavailability [19]: 32.9%
half-life at 20 µM [20]: 330 min
inhibition [21]: Dose-Dependent Effect
Activity [22]: Non-Toxic
Activity (PC-3 [23]): Active
Activity (LNCaP [24]): Dose-Dependent Effect
Activity (CWR22R [25]): 17.71%
Activity (BEAS-2B): Non-Toxic
Activity (LNCaP [26]): Active
Activity (MV4-11): Active
Activity (CWR22R [27]): Active
inhibition [28]: Active
Activity (PC-9): Active
inhibition (CWR22R [29]): Active
Activity (CWR22R [30]): Dose-Dependent Effect
inhibition [31]: Active
Activity (PC-3 [32]): Dose-Dependent Effect
